Test results as given in patent US20150266850A1 (E.I.DU PONT DE NEMOURS AND COMPANY, priority 2012, published 2015).
Marks after values point to notes of the source that are not given here.

What was measured:
Assay type in all cases: in vivo
Settings in all cases: 100 = 100% disease control
Septoria nodorum = experiment: Test D: wheat glume blotch, preventive spray on wheat seedlings, visual disease rating
Procedure, shortened: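 Preventive test: wheat seedlings sprayed to run-off with compound suspension (acetone/water with 250 ppm Trem 014; 200 ppm, some at 40 or 50 ppm), inoculated with Septoria nodorum next day. Held 48 h saturated at 20° C, then 7 days at 20° C; visual rating 0-100% disease control versus controls.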

[1] = system: Erysiphe graminis f. sp. tritici; experiment: Test A: wheat powdery mildew, preventive spray on wheat seedlings, visual disease rating
Procedure, shortened: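 Wheat seedlings sprayed to run-off with compound in acetone/water with 250 ppm Trem 014 (200 ppm ≈ 800 g/ha; some at 40 or 50 ppm), inoculated next day with spore dust. After 8 days at 20° C, disease control rated visually, 0–100% relative to controls.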

Botrytis cinerea = experiment: Test E: tomato botrytis, preventive spray on tomato seedlings, visual disease rating
Description: General protocol for preparing test suspensions for Tests A-E: the test compounds were first dissolved in acetone in an amount equal to 11% of the final volume and then suspended at the desired concentration (in ppm) in acetone and purified water (50/50 mix by volume) containing 250 ppm of the surfactant Trem® 014 (polyhydric alcohol esters). The resulting test suspensions were then used in Tests A-E. Spraying a 200 ppm test suspension to the point of run-off on the test plants was the equivalent of a rate of 800 g/ha.
The test suspension was sprayed to the point of run-off on tomato seedlings. The following day the seedlings were inoculated with a spore suspension of Botrytis cinerea (the causal agent of tomato botrytis) and incubated in saturated atmosphere at 20° C. for 48 h, and then moved to a growth chamber at 27° C. for 3 additional days, after which time disease ratings were visually made.
Results for Tests A-E are given in Table A. In the Table, a rating of 100 indicates 100% disease control and a rating of 0 indicates no disease control (relative to the controls). A dash (-) indicates no test results. All results are for 200 ppm except where followed by an “*”, which indicates 40 ppm or “**”, which indicates 50 ppm.

[2] = system: Puccinia recondita f sp. tritici; experiment: Test B: wheat leaf rust, preventive spray on wheat seedlings, visual disease rating
Procedure, shortened: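 Test suspension in acetone/water 50/50 with 250 ppm Trem® 014, sprayed to run-off on wheat seedlings at 200 ppm (≈800 g/ha), or 40 or 50 ppm where marked. Inoculated next day with spores, held 24 h saturated at 20° C, then 7 days at 20° C; disease control rated visually, 0–100 versus controls.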

Septoria tritici = experiment: Test C: wheat leaf blotch, preventive spray on wheat seedlings, visual disease rating
Procedure, shortened: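 Compounds in acetone (11% of final volume) suspended in acetone/water 50/50 with 250 ppm Trem® 014; 200 ppm (≈800 g/ha), some at 40 or 50 ppm, sprayed to run-off. Septoria tritici inoculated next day; 48 h saturated at 24° C., then 19 days at 20° C.; visual rating, 0–100% control vs untreated.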

| SMILES | Test D disease control rating (Septoria nodorum; 40 ppm (*)) | Test A disease control rating ([1]; 40 ppm (*)) | Test E disease control rating (Botrytis cinerea; 40 ppm (*)) | Test B disease control rating ([2]; 40 ppm (*)) | Test C disease control rating (Septoria tritici; 40 ppm (*)) | Test D disease control rating (Septoria nodorum; 200 ppm) [%] | Test A disease control rating ([1]; 200 ppm) [%] | Test E disease control rating (Botrytis cinerea; 200 ppm) [%] | Test B disease control rating ([2]; 200 ppm) [%] | Test C disease control rating (Septoria tritici; 200 ppm) [%] |
| --- | --- | --- | --- | --- | --- | --- | --- | --- | --- | --- |
| COC(=O)NCc1cc(-n2ccc(-c3ccc(Cl)nc3C)n2)ccc1C [Cmpd 44] | 100* % | 98* % | 0* % | 100* % | 92* % |  |  |  |  |  |
| COC(=O)NCc1cc(-n2ccc(-c3ccc(Cl)nc3OC)n2)ccc1C [Cmpd 45] | 100* % | 98* % | 39* % | 100* % | 95* % |  |  |  |  |  |
| COC(=O)NCc1cc(-c2ccn(-c3ccc(Br)cc3[N+](=O)[O-])n2)ccc1C [Cmpd 48] | 100* % | 0* % | 37* % | 100* % | 100* % |  |  |  |  |  |
| COC(=O)NCc1cc(-c2ccn(-c3ccc(Cl)cc3[N+](=O)[O-])n2)ccc1C [Cmpd 49] | 100* % | 26* % | 8* % | 100* % | 95* % |  |  |  |  |  |
| COC(=O)NCc1cc(-n2ncc(-c3ccc(Cl)cc3F)n2)ccc1C [Cmpd 50] | 100* % | 100* % | 77* % | 100* % | 99* % |  |  |  |  |  |
| C#CCOc1cc(OC)ccc1-c1ccn(-c2ccc(C)c(CNC(=O)OC)c2)n1 [Cmpd 51] |  |  |  |  |  | 100 | 0 | 0 | 100 | 88 |
| COC(=O)NCc1cc(-c2ccn(-c3ccc(Cl)cc3C#N)n2)ccc1C [Cmpd 52] | 100* % | 97* % | 0* % | 100* % | 88* % |  |  |  |  |  |
| COC(=O)NCc1cc(-n2ccc(-c3ccc(OC)cc3OCC#N)n2)ccc1C [Cmpd 53] |  |  |  |  |  | 100 | 100 | 0 | 100 | 97 |
| COC(=O)NCc1cc(-n2ccc(-c3ccc(Br)cc3Cl)n2)ccc1C [Cmpd 55] | 100* % | 100* % | 38* % | 100* % | 91* % |  |  |  |  |  |
| COC(=O)NCc1cc(-n2ccc(-c3ccc(Br)cc3F)n2)ccc1C [Cmpd 56] | 100* % | 100* % | 56* % | 100* % | 98* % |  |  |  |  |  |
| COC(=O)NCc1cc(-n2ccc(-c3ccc(F)cc3Br)n2)ccc1C [Cmpd 57] | 100* % | 100* % | 63* % | 100* % | 99* % |  |  |  |  |  |
| COC(=O)NCc1cc(-n2ccc(-c3ccc(Br)cc3OC)n2)ccc1C [Cmpd 58] | 100* % | 100* % | 26* % | 100* % | 96* % |  |  |  |  |  |
| COC(=O)NCc1cc(-n2ccc(-c3ccc(OC)cc3Br)n2)ccc1C [Cmpd 59] | 100* % | 99* % | 52* % | 100* % | 97* % |  |  |  |  |  |
| COC(=O)NCc1cc(-c2ccn(-c3ccc(F)cc3Cl)n2)ccc1C [Cmpd 60] | 100* % | 100* % | 99* % | 100* % | 91* % |  |  |  |  |  |
